“And” between values parts separate entries of the source, which are not always exact repeats. Equal entries are not always repeated. “Also recorded” adds a separate entry of the source.
Assays:
[1] = test system: F344 kidney allograft in LEW recipient rats; assay: Kidney graft histology, modified Banff criteria (Example 1); assay type: in vivo, rat; details: for Banff grade: Fibro-intimal Hyperplasia / Banff grade: Glomerulitis / Banff grade: Glomerulosclerosis / Banff grade: Inflammation / Banff grade: Mesangiolysis / Banff grade: Transplant Glomerulopathy / Banff grade: Tubular Atrophy / Banff grade: Tubulitis / Banff grade: Vasculitis: graft day 90, one line per rat; for approximate cumulative reduction in Banff score: fibro-intimal hyperplasia / approximate cumulative reduction in Banff score: glomerulitis / approximate cumulative reduction in Banff score: glomerulosclerosis / approximate cumulative reduction in Banff score: interstitial inflammation / approximate cumulative reduction in Banff score: mesangiolysis / approximate cumulative reduction in Banff score: transplant glomerulopathy / approximate cumulative reduction in Banff score: tubular atrophy / approximate cumulative reduction in Banff score: tubulitis / approximate cumulative reduction in Banff score: vasculitis: vs untreated allograft control
Protocol: (§1) Inbred male Lewis rats (LEW) (RT1^I), weighing 250-300 g, were used as kidney transplantation recipients. Inbred male LEW and Fisher (F344) (RT1^IvI), weighing 250-350 g, were used as isograft and allograft donor rats, respectively. Kidney transplantation was performed using the modified technique of Fisher and Lee. [Fisher et al., Surgery, 58:904-914, 1965] Survival of kidney transplant was measured as time of recipient rat survival. Blood and 24 hr urine samples were collected once a week for plasma creatinine, proteinuria, and the measurement of antibody titer against donor glomeruli basement membrane protein (GBM). Kidney grafts were harvested on the 90th day posttranspalantation and subjected to histology and reverse transcriptase-polymerase chain reaction (RT-PCR) analysis. The compound (I), at doses of 10 mg/kg and 20 mg/kg were administered orally to recipient rats daily from day 0 to day 9 after transplantation. Control isograft and allograft recipients received no drug after transplantation.
Kidney graft tissues were harvested from recipients on day 90th after transplantation for histological analysis. Graft samples were fixed in 10% NBF and subsequently processed then immediately embedded in ParaPlast™ paraffin embedding media. Samples were sectioned at 3 μm, pre-warmed, deparaffinized, rehydrated, and subsequently stained in one of four processes: Hematoxylin and Eosin, Per-Iodic Acid Schiff, Verhoeff's Combined Elastic Trichrome, and Per-Iodic Acid Silver Methenamine. Histological sections were blindly evaluated by two histologists and scored semiquantitatively based on modified Banff' criteria for transplant pathology. [Solez et al., Kidney Int., 44:411-422, 1993]

[2] = test system: F344 kidney allograft in LEW recipient rats; assay: Kidney allograft survival, prevention of chronic rejection (Example 1); assay type: in vivo, rat; details: 0-9 day; for Survival day: individual rats, n=5; for Survival rate (more than 90 days): untreated allograft 40%
Protocol: as §1

[3] = Compound (I) 10 mg/kg PO, 10 mg/kg

SMILES: C#CCC/C(O)=C(\C#N)C(=O)Nc1ccc(C(F)(F)F)cc1 [Compound (I), (2Z)-2-cyano-3-hydroxy-N-[4-(trifluoromethyl)phenyl]-2-hepten-6-ynamide]
- Banff grade: Fibro-intimal Hyperplasia ([1]; 10 mg from day 0-9): ++ ((++):Grade 2, Moderate); also recorded: − ((−):Grade 0, Normal)
- Banff grade: Glomerulitis ([1]; 10 mg from day 0-9): + ((+):Grade 1, Mild); also recorded: − ((−):Grade 0, Normal)
- Banff grade: Glomerulosclerosis ([1]; 10 mg from day 0-9): − ((−):Grade 0, Normal); also recorded: + ((+):Grade 1, Mild)
- Banff grade: Inflammation ([1]; 10 mg from day 0-9): + ((+):Grade 1, Mild); also recorded: ++ ((++):Grade 2, Moderate)
- Banff grade: Mesangiolysis ([1]; 10 mg from day 0-9): − ((−):Grade 0, Normal); also recorded: + ((+):Grade 1, Mild)
- Banff grade: Transplant Glomerulopathy ([1]; 10 mg from day 0-9): − ((−):Grade 0, Normal); also recorded: + ((+):Grade 1, Mild)
- Banff grade: Tubular Atrophy ([1]; 10 mg from day 0-9): + ((+):Grade 1, Mild)
- Banff grade: Tubulitis ([1]; 10 mg from day 0-9): − ((−):Grade 0, Normal)
- Banff grade: Vasculitis ([1]; 10 mg from day 0-9): + ((+):Grade 1, Mild); also recorded: +++ ((+++):Grade 3, Severe)
- approximate cumulative reduction in Banff score: fibro-intimal hyperplasia ([1]; 10 mg/kg PO day 0-9): ~63%
- approximate cumulative reduction in Banff score: glomerulitis ([1]; 10 mg/kg PO day 0-9): ~75%
- approximate cumulative reduction in Banff score: glomerulosclerosis ([1]; 10 mg/kg PO day 0-9): ~83%
- approximate cumulative reduction in Banff score: interstitial inflammation ([1]; 10 mg/kg PO day 0-9): ~50%
- approximate cumulative reduction in Banff score: mesangiolysis ([1]; 10 mg/kg PO day 0-9): ~83%
- approximate cumulative reduction in Banff score: transplant glomerulopathy ([1]; 10 mg/kg PO day 0-9): ~79%
- approximate cumulative reduction in Banff score: tubular atrophy ([1]; 10 mg/kg PO day 0-9): ~40%
- approximate cumulative reduction in Banff score: tubulitis ([1]; 10 mg/kg PO day 0-9): ~100%
- approximate cumulative reduction in Banff score: vasculitis ([1]; 10 mg/kg PO day 0-9): ~33%
- Banff grade: Fibro-intimal Hyperplasia ([1]; 20 mg from day 0-9): ++ ((++):Grade 2, Moderate); also recorded: + ((+):Grade 1, Mild)
- Banff grade: Glomerulitis ([1]; 20 mg from day 0-9): ++ ((++):Grade 2, Moderate); also recorded: + ((+):Grade 1, Mild); also recorded: − ((−):Grade 0, Normal)
- Banff grade: Glomerulosclerosis ([1]; 20 mg from day 0-9): − ((−):Grade 0, Normal)
- Banff grade: Inflammation ([1]; 20 mg from day 0-9): + ((+):Grade 1, Mild)
- Banff grade: Mesangiolysis ([1]; 20 mg from day 0-9): − ((−):Grade 0, Normal)
- Banff grade: Transplant Glomerulopathy ([1]; 20 mg from day 0-9): − ((−):Grade 0, Normal)
- Banff grade: Tubular Atrophy ([1]; 20 mg from day 0-9): + ((+):Grade 1, Mild); also recorded: − ((−):Grade 0, Normal)
- Banff grade: Tubulitis ([1]; 20 mg from day 0-9): − ((−):Grade 0, Normal)
- Banff grade: Vasculitis ([1]; 20 mg from day 0-9): +++ ((+++):Grade 3, Severe); also recorded: − ((−):Grade 0, Normal)
- approximate cumulative reduction in Banff score: fibro-intimal hyperplasia ([1]; 20 mg/kg PO day 0-9): ~44%
- approximate cumulative reduction in Banff score: glomerulitis ([1]; 20 mg/kg PO day 0-9): ~38%
- approximate cumulative reduction in Banff score: glomerulosclerosis ([1]; 20 mg/kg PO day 0-9): ~100%
- approximate cumulative reduction in Banff score: interstitial inflammation ([1]; 20 mg/kg PO day 0-9): ~67%
- approximate cumulative reduction in Banff score: mesangiolysis ([1]; 20 mg/kg PO day 0-9): ~100%
- approximate cumulative reduction in Banff score: transplant glomerulopathy ([1]; 20 mg/kg PO day 0-9): ~100%
- approximate cumulative reduction in Banff score: tubular atrophy ([1]; 20 mg/kg PO day 0-9): ~85%
- approximate cumulative reduction in Banff score: tubulitis ([1]; 20 mg/kg PO day 0-9): ~100%
- approximate cumulative reduction in Banff score: vasculitis ([1]; 20 mg/kg PO day 0-9): ~50%
- Survival day [2, 3]: 28 days and > 90 days
- Survival rate (more than 90 days) [2, 3]: 80%
- Survival day ([2]; Compound (I) 20 mg/kg PO): >90(5) day
- Survival rate (more than 90 days) ([2]; Compound (I) 20 mg/kg PO, 20 mg/kg): 100%
